Laboratory results: patent US20250213500A1, “PHARMACEUTICAL COMPOSITION FOR IMPROVING LIFE QUALITY OF ELDERLY PEOPLE ON BASIS OF VITAMIN K2, PREPARATION METHOD THEREFOR AND USE THEREOF” (priority 2022, published 2025)

Test system: tumor cells
Assay: Tumor inhibition in mice subcutaneously inoculated with tumor cells
Format: in vivo
Conditions: 10 mg/kg once daily for 15 days; tumor weight vs saline group
Method: A total of 140 mice (equal number of males and females), approximately 3 months old, with a weight range of 15.41-18.47 g, were selected. Mice were subcutaneously inoculated with tumor cells, and their blood samples were drawn 24 hours later to test tumor markers and confirm the success of the mouse model establishment. A total of 126 mice confirmed with cancer (equal number of males and females) were selected and randomly divided into 6 groups, with 21 mice in each group (roughly equal number of males and females). These 6 groups were designated as Experimental Group 1, Experimental Group 2, Experimental Group 3, Experimental Group 4, Experimental Group 5, and Experimental Group 6. […] Tumor inhibition rate was calculated as follows: Tumor Inhibition Rate=(Average Tumor Weight in Control Group−Average Tumor Weight in Experimental Group)/Average Tumor Weight in Control Group.

| SMILES | Tumor Inhibition Rate [%] |
| --- | --- |
| CC(C)=CCC/C(C)=C/CC/C(C)=C/CC/C(C)=C/CC/C(C)=C/CC/C(C)=C/CC/C(C)=C/CC1=C(C)C(=O)c2ccccc2C1=O [MK-7, vitamin K2 (MK-7)] | 35.67 |
| CCCc1nn(C)c2c(=O)[nH]c(-c3cc(S(=O)(=O)N4CCN(C)CC4)ccc3OCC)nc12 [sildenafil] | 40.55 |
